Measured values: ChEMBL document CHEMBL3352389, “Evaluation of class I HDAC isoform selectivity of largazole analogues” (Bioorg Med Chem Lett, 2014)

Legend:
Histone deacetylase 1 = Histone deacetylase 1 (Homo sapiens, UniProt Q13547); experiment: Inhibition of HDAC1 (unknown origin) incubated at 37 degC for 30 mins
Histone deacetylase 8 = biological target: T1, Histone deacetylase 8 (Homo sapiens, UniProt Q9BY41); experiment: Inhibition of HDAC8 (unknown origin) incubated at 37 degC for 30 mins
T1 sequence (Q9BY41 whole entry): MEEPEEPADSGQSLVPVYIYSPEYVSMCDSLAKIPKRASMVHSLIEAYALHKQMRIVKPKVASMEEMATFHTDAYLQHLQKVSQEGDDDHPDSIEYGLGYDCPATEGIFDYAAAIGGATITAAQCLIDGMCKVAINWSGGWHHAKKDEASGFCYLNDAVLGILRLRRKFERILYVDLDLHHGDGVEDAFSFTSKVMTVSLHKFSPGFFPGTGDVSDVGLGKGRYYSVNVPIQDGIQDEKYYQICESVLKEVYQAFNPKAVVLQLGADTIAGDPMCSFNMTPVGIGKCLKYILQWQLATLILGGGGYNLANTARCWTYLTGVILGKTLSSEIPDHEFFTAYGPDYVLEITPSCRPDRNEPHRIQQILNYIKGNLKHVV

Histone deacetylase 2 = Histone deacetylase 2 (Homo sapiens, UniProt Q92769); experiment: Inhibition of HDAC2 (unknown origin) incubated at 37 degC for 30 mins
Chain of Histone deacetylase 2 (Q92769 whole entry): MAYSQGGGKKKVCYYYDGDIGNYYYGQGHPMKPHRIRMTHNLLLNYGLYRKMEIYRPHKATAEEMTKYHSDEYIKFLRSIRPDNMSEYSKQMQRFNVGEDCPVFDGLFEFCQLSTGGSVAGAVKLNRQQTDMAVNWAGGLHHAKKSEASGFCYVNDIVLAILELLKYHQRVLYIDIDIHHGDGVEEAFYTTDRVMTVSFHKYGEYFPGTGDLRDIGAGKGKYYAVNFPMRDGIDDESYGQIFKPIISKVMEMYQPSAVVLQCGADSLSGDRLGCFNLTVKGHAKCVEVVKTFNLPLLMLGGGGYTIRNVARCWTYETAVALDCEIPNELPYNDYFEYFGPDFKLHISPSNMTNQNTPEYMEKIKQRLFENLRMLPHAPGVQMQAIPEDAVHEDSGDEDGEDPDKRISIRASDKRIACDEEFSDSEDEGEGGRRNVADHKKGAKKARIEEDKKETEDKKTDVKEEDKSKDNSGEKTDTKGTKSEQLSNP

Histone deacetylase 3 = Histone deacetylase 3 (Homo sapiens, UniProt O15379); experiment: Inhibition of HDAC3 (unknown origin) incubated at 37 degC for 30 mins
Chain of Histone deacetylase 3 (O15379 whole entry): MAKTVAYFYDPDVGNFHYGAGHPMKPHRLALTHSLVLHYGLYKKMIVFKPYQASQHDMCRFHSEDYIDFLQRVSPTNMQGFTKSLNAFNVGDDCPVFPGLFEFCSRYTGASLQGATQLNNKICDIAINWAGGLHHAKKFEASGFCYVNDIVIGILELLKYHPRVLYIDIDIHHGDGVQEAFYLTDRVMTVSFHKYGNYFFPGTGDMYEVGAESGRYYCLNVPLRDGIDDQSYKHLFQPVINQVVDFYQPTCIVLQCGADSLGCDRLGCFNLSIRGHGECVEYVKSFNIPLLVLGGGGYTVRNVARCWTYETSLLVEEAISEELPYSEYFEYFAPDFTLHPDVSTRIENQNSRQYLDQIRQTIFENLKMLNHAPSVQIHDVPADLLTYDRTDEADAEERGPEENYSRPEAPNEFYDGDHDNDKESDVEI

Chain of Histone deacetylase 1 (Q13547 whole entry): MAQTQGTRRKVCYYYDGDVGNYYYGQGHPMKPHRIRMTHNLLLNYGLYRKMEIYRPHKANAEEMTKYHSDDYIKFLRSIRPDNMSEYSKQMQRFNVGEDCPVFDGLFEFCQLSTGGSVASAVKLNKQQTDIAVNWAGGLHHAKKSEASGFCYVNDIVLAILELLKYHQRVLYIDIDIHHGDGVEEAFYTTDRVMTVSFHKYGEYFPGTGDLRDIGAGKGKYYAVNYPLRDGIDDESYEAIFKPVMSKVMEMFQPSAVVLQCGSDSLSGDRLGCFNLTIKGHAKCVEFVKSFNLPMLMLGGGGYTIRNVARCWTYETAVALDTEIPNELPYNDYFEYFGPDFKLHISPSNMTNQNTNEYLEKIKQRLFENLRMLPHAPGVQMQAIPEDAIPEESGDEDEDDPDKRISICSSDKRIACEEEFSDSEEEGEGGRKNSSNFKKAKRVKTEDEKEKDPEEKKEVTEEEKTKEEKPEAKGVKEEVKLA

Row | Compound | IC50 (Histone deacetylase 1) [nM] | IC50 (Histone deacetylase 8; read-out: IC50) [nM] | IC50 (Histone deacetylase 2) [nM] | IC50 (Histone deacetylase 8) | IC50 (Histone deacetylase 3) [nM]
1 | CC(C)(C)OC(=O)n1cnc(C[C@@H]2NC(=O)[C@]3(C)CSC(=N3)c3csc(n3)CNC(=O)C[C@@H](/C=C/CCS)OC2=O)c1 | 0.62 | 540 | – | – | –
2 | CC(C)(C)OC(=O)NCC[C@@H]1NC(=O)[C@]2(C)CSC(=N2)c2csc(n2)CNC(=O)C[C@@H](/C=C/CCS)OC1=O | 2.3 | – | 3.1 | Not Active | 4.2
3 | C[C@@]12CSC(=N1)c1csc(n1)CNC(=O)C[C@@H](/C=C/CCS)OC(=O)[C@H](CCCN)NC2=O | 3.3 | – | 6.3 | Not Active | 6
4 | C[C@@]12CSC(=N1)c1csc(n1)CNC(=O)C[C@@H](/C=C/CCS)OC(=O)[C@H](Cc1c[nH]cn1)NC2=O | 0.2 | – | 1.4 | Not Active | 1.1
5 | C[C@@]12CSC(=N1)c1csc(n1)CNC(=O)C[C@@H](/C=C/CCS)OC(=O)[C@H](Cc1ccccc1)NC2=O | 0.29 | – | 1.7 | Not Active | 0.68
6 | C[C@@]12CSC(=N1)c1csc(n1)CNC(=O)C[C@@H](/C=C/CCS)OC(=O)[C@H](CC(=O)O)NC2=O | 39 | – | 150 | Not Active | 100
7 | C[C@@]12CSC(=N1)c1csc(n1)CNC(=O)C[C@@H](/C=C/CCS)OC(=O)[C@H](CCN)NC2=O | 5.5 | – | 21 | Not Active | 7.8
8 | C[C@@]12CSC(=N1)c1csc(n1)CNC(=O)C[C@@H](/C=C/CCS)OC(=O)[C@H](Cc1ccc(O)cc1)NC2=O | 0.21 | – | 1.1 | Not Active | 0.38
9 | CC(C)(C)OC(=O)NCCC[C@@H]1NC(=O)[C@]2(C)CSC(=N2)c2csc(n2)CNC(=O)C[C@@H](/C=C/CCS)OC1=O | 0.96 | 790 | 1.4 | – | 1.8
